Test results reported in US11230526B1, “Cylcoalkenyl derivatives useful as agonists of the GPR120 and/or GPR40 receptors” (Janssen Pharmaceutica NV, priority 2018, dated 2022).
pEC50: −log10 of the molar value.

Assays:
Format in all cases: cell-based
[1] = biological target: T1, human GPR40 (Homo sapiens, UniProt O14842); assay: GPR40 calcium flux assay, human GPR40; conditions: HEK293 cells stably expressing GPR40; table does not say human or rat
T1 construct: expressed in transfected cells
Outline: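 Cells preincubated 1 h at 37° C. in HBSS, 20 mM HEPES, 0.1% BSA, then Fluo 8 calcium dye 30 min at 37° C. and 15 min at room temperature.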

[2] = biological target: T2, Human GPR120 short form (Homo sapiens, UniProt Q5NUL3); assay: Human GPR120 calcium flux assay, Procedure Calcium A (2500 cells/well)
T2 construct: expressed in transfected cells
T2 sequence (Q5NUL3 1-361): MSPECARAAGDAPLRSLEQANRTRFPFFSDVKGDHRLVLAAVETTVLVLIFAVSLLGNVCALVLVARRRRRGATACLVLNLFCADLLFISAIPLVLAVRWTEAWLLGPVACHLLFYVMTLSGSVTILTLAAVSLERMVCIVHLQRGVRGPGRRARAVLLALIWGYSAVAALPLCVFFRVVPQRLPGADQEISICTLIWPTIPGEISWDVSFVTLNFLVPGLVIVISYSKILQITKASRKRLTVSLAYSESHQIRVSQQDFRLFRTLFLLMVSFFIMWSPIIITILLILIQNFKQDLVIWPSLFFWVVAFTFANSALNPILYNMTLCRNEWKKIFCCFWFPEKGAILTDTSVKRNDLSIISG
From the text: Human GPR120 in Calcium Flux Assay
This in vitro assay serves to assess test compound agonist activity against the short splice variant (SVS with Accession number NM_001195755.1 confirmed by sequencing data) of the GPR120 receptor. The Human Short splice variant #2 (NM_001195755.1) is missing an in-frame coding exon compared to variant 1 (the Human Long splice variant NM_181745.3), resulting in a shorter isoform (GPR120-S) lacking a 16 aa protein segment compared to isoform GPR120-L. The assay platform utilizes HEK-293 cells stably transfected to express the Human GPR120 short form. These cells are first loaded with the Ca^+2 sensitive dye, Fluo-4 NW. Upon stimulation, intracellular released Ca^+2 can bind to the dye and alter its fluorescence intensity. This increase in fluorescence signal, and thus the flux in intracellular [Ca^2+], is detected and quantitated by fluorescence imaging using a FLIPR reader. The effect of the agonist is measured as a function of concentration and used to calculate an EC50 based upon a response curve.
In this procedure 2500 cells/well were employed.
A Human GPR120 clone (Genbank accession number NM_001195755.1) was placed into the pcDNA3.1 mammalian expression vector carrying the neomycin resistance gene. A stable mammalian cell was generated by placing the above clone into a HEK293 background. Clonal cells responding to long chain fatty acids had expression levels of GPR120 confirmed by RT-qPCR. Human HEK-GPR120 cells were cultured in Dulbecco's Modified Eagle's Medium (DMEM)/F12 medium supplemented with 10% fetal bovine serum (FBS), 1% L-Glutamine and 1% penicillin/streptomycin and 0.5 mg/ml G-418. Cells were split 2 times a week to keep the cells in the log-phase growth.
In preparation for the assay, HEK cells stably transfected with Human GPR120 (2.5K cells per well in 25 uL growth medium) were seeded into 384-well plates and then incubated overnight (37° C., 5% CO2). The next day, the media was changed to 20 μL assay buffer and the cell starved for 1 h at 37° C. The dye loading solution (2× dye) was prepared using 10 mL assay buffer, 100 μL of 250 mM probenecid, 1 bottle of Component A, and 20 μl of dye in DMSO. Twenty μL of the 2× dye loading buffer was then added to each well. The plates were incubated at 37° C. for 30 min, then at room temperature for an additional 15 minutes, before performing the assay on FLIPR.
The assay was performed on a FLIPR plate reader using the following parameters. Baseline was read for 10 seconds at 1 sec intervals. The program was set to transfer 10 μL of ligand from compound plate to cell plate after baseline reading. Aspiration was executed at: 10 μL/sec speed, 4.6 μL height, Dispensing was executed at: 30 μL/sec speed, 45 μL height. After compound addition, each well was read for 300 sec, with measurements collected at 1 sec intervals.
The kinetic data from the FLIPR was based upon a 5 minute window for data collection. The fluorescence of each sample well was used for individual calculations of a normalized RFU value, which was defined as maximum response minus the minimum response. The normalized fluorescence reading (RFU) was calculated as follows: RFU=Fmax−Fmin
The Fitting Equation was: Y=Bottom+(Top-Bottom)/(1+10^((Log EC50−X)*HillSlope)), where X is the log of the concentration and Y is the response.

[3] = biological target: T2, Human GPR120 short form; assay: Human GPR120 calcium flux assay, Procedure Calcium B (4200 cells/well)
Outline: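 HEK293 cells stably expressing human GPR120 (NM_001195755.1), 4200 cells/well, starved 1 h and loaded with Fluo-4 NW plus probenecid. Ligand-evoked calcium flux read on FLIPR for 300 s after a 10 s baseline. RFU = Fmax−Fmin; EC50 from four-parameter concentration-response fit.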

[4] = biological target: T3, long form of human GPR120 (Homo sapiens, UniProt Q5NUL3); assay: Human GPR120 DiscoveRx PathHunter Beta-Arrestin assay, Procedure β-arrestin A
T3 construct: host or cells: PathHunter CHO-K1 GPR120 β-Arrestin Cell Line
T3 sequence (Q5NUL3 1-377 isoform Q5NUL3-1): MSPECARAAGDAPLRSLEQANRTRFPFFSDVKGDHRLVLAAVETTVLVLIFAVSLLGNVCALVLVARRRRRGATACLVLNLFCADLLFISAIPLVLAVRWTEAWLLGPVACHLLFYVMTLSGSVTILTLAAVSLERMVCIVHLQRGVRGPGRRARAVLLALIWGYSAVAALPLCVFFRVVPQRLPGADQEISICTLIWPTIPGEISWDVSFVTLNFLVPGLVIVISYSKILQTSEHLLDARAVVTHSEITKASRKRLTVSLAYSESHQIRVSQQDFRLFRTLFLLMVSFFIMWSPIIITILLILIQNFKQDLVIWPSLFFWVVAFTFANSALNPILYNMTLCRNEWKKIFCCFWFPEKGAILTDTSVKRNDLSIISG
T3 sequence (P32121 whole entry partner): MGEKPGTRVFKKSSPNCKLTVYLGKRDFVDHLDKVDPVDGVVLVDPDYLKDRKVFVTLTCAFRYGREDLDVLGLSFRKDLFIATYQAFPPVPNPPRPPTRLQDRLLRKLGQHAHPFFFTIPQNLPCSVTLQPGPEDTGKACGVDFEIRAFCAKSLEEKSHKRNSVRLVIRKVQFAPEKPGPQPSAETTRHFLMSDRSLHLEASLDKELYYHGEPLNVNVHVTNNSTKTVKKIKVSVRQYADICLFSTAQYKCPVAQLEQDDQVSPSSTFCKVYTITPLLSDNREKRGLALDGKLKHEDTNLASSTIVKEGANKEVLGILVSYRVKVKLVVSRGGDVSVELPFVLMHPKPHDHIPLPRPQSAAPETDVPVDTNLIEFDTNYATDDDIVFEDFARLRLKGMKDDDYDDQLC
Outline: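 PathHunter CHO-K1 cells expressing long-form human GPR120 (3000/well) were seeded overnight. They were then preincubated 60 min in HBSS with 20 mM HEPES and 0.1% BSA, pH 7.4, and exposed to compound for 90 min at 37 °C. β-Arrestin recruitment was read as β-gal complementation luminescence. EC50 came from % activity versus positive control, Hill slope fixed at 1.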

T1 sequence (O14842 whole entry): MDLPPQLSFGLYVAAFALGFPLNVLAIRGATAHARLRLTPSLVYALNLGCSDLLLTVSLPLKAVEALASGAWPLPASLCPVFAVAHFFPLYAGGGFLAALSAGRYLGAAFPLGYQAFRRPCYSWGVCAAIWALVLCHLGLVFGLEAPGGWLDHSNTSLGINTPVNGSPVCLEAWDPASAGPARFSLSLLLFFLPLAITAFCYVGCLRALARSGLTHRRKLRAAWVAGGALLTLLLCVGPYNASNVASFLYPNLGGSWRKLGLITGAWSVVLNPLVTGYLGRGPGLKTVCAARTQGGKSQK

Row | SMILES | pEC50 [1] | pEC50 [2] | pEC50 [3] | pEC50 [4]
1 | COc1ccc(C2=C(COc3ccc(CCC(=O)O)c(C)c3C)CCC2)cc1 [Compound 21, 3-(4-((2-(4-methoxyphenyl)cyclopent-1-en-1-yl)methoxy)-2,3-dimethylphenyl)Propanoic Acid] | < 5.30 | < 4.70 |  | 
2 | Cc1c(CCC(=O)O)ccc(OCC2=C(c3ccsc3)CCC2)c1C [Compound 22, 3-(2,3-dimethyl-4-((2-(thiophen-3-yl)cyclopent-1-en-1-yl)methoxy)phenyl)Propanoic Acid] | < 5.30 | < 4.70 |  | 
3 | O=C(O)CCc1ccc(OCC2=C(c3ccc(Cl)cc3)CCC2O)c(F)c1F (centres unmarked) [Compound 45] | < 5.30 | < 4.70 |  | 
4 | CC(=O)Nc1ccc(C2=C(COc3ccc(CCC(=O)O)c(C)c3C)CCC2)cc1 [Compound 51, 3-[4-[[2-(4-acetamidophenyl)cyclopenten-1-yl]methoxy]-2,3-dimethyl-phenyl]Propanoic Acid] |  | < 4.70 |  | 
5 | Cc1c(CCC(=O)O)ccc(OCC2=C(c3ccc(S(C)(=O)=O)cc3)CCC2)c1C [Compound 74, 3-[2,3-dimethyl-4-[[2-(4-methylsulfonylphenyl)cyclopenten-1-yl]methoxy]phenyl]Propanoic Acid] | < 5.00 | < 4.70 |  | 
6 | COc1cc(C2=C(COc3ccc(CCC(=O)O)c(C)c3C)CCC2)ccc1C [Compound 113, 3-(4-((2-(3-methoxy-4-methylphenyl)cyclopent-1-en-1-yl)methoxy)-2,3-dimethylphenyl)Propanoic Acid] | < 5.30 | < 5.30 |  | 
7 | Cc1c(CCC(=O)O)ccc(OCC2=C(c3ccc([S+](C)[O-])cc3)CCC2)c1C (centres unmarked) [Compound 120, 3-[2,3-dimethyl-4-[[2-(4-methylsulfinylphenyl)cyclopenten-1-yl]methoxy]phenyl]Propanoic Acid] |  | < 5.30 |  | 
8 | Cc1c(CCC(=O)O)ccc(OCC2=C(c3ccncc3)CCC2)c1C [Compound 139, 3-[2,3-dimethyl-4-[[2-(4-pyridyl)cyclopenten-1-yl]methoxy]phenyl]Propanoic Acid] |  | 5.61 | 5.61 | 
9 | CCOc1ccc(C2=C(COc3ccc(CCC(=O)O)c(C)c3C)CCCC2)cc1 [Compound 461, 3-[4-[[2-(4-ethoxyphenyl)cyclohexen-1-yl]methoxy]-2,3-dimethyl-phenyl]Propanoic Acid] |  | 5.65 | 5.87 | 
10 | Cc1c(CCC(=O)O)ccc(OCC2=C(c3ccccc3Cl)CCCC2)c1C [Compound 464, 3-[4-[[2-(2-chlorophenyl)cyclohexen-1-yl]methoxy]-2,3-dimethyl-phenyl]Propanoic Acid] |  | 5.87 | 5.90 | 
11 | Cc1c(CCC(=O)O)ccc(OCC2=C(c3ccc(OC(F)(F)F)cc3)CCCC2)c1C [Compound 466, 3-[2,3-dimethyl-4-[[2-[4-(trifluoromethoxy)phenyl]cyclohexen-1-yl]methoxy]phenyl]Propanoic Acid] |  | 5.35 | 5.84 | 
12 | Cc1cc(CCC(=O)O)ccc1OCC1=C(c2cnn(C)c2)CCC(F)(F)C1 [Compound 546, 3-[4-[[5,5-difluoro-2-(1-methylpyrazol-4-yl)cyclohexen-1-yl]methoxy]-3-methyl-phenyl]Propanoic Acid] | 5.63 |  | 6.12 | 5.78
13 | Cc1cc(CCC(=O)O)ccc1OCC1=C(c2cncs2)CCC(F)(F)C1 [Compound 548, 3-[4-[(5,5-difluoro-2-thiazol-5-yl-cyclohexen-1-yl)methoxy]-3-methyl-phenyl]Propanoic Acid] | 5.46 |  | 6.30 | 5.87
14 | Cc1ncc(C2=C(COc3ccc(CCC(=O)O)cc3C)CC(F)(F)CC2)s1 [Compound 550, 3-[4-[[5,5-difluoro-2-(2-methylthiazol-5-yl)cyclohexen-1-yl]methoxy]-3-methyl-phenyl]Propanoic Acid] | 6.19 |  | 6.32 | 6.36
15 | Cc1ncc(C2=C(COc3ccc(CCC(=O)O)c(C)c3C)CC(F)(F)CC2)s1 [Compound 553, 3-[4-[[5,5-difluoro-2-(2-methylthiazol-5-yl)cyclohexen-1-yl]methoxy]-2,3-dimethyl-phenyl]Propanoic Acid] | 5.63 |  | 6.28 | 6.14
16 | Cc1c(CCC(=O)O)ccc(OCC2=C(c3ccc(C#N)s3)CCC(F)(F)C2)c1C [Compound 558, 3-[4-[[2-(5-cyano-2-thienyl)-5,5-difluoro-cyclohexen-1-yl]methoxy]-2,3-dimethyl-phenyl]Propanoic Acid] | < 5.30 |  | 6.42 | 5.88
17 | Cc1cc(CCC(=O)O)ccc1OCC1=C(c2cccs2)CCC(F)(F)C1 [Compound 560, 3-[4-[[5,5-difluoro-2-(2-thienyl)cyclohexen-1-yl]methoxy]-3-methyl-phenyl]Propanoic Acid] | 5.39 |  | 6.93 | 6.76
18 | Cc1ccc(C2=C(COc3c(F)cc(CCC(=O)O)cc3F)CC(F)(F)CC2)s1 [Compound 562, 3-[4-[[5,5-difluoro-2-(5-methyl-2-thienyl)cyclohexen-1-yl]methoxy]-3,5-difluoro-phenyl]Propanoic Acid] | < 5.30 |  | 6.92 | 6.61
19 | Cc1cc(CCC(=O)O)ccc1OCC1=C(c2ccc(Cl)cc2)CC(F)(F)CC1 [Compound 566, 3-[4-[[2-(4-chlorophenyl)-4,4-difluoro-cyclohexen-1-yl]methoxy]-3-methyl-phenyl]Propanoic Acid] | 5.48 |  | 6.78 | 6.68
20 | O=C(O)CCc1cc(F)c(OCC2=C(c3ccco3)CCC(F)(F)C2)c(F)c1 [Compound 569, 3-[4-[[5,5-difluoro-2-(2-furyl)cyclohexen-1-yl]methoxy]-3,5-difluoro-phenyl]Propanoic Acid] | < 5.30 |  | 6.52 | 6.28
21 | N#Cc1ccc(C2=C(COc3c(F)cc(CCC(=O)O)cc3F)CC(F)(F)CC2)s1 [Compound 572, 3-[4-[[2-(5-cyano-2-thienyl)-5,5-difluoro-cyclohexen-1-yl]methoxy]-3,5-difluoro-phenyl]Propanoic Acid] | < 5.30 |  | 6.19 | 6.00
22 | Cc1cc(CCC(=O)O)ccc1OCC1=C(c2ccc(C#N)s2)CCC(F)(F)C1 [Compound 573, 3-[4-[[2-(5-cyano-2-thienyl)-5,5-difluoro-cyclohexen-1-yl]methoxy]-3-methyl-phenyl]Propanoic Acid] | 5.35 |  | 6.35 | 6.19
